# Assay results from patent US20250179047A1, “5-[7-(3,4-DIHYDRO-1H-ISOQUINOLINE-2-CARBONYL)-1,2,3,4 TETRAHYDROISOQUINOLIN-6-YL]-1H-PYRROLE-3-CARBOXAMIDE DERIVATIVES, PHARMACEUTICAL COMPOSITIONS CONTAINING THEM AND THEIR USES AS PRO-APOPTOTIC AGENTS” (LES LABORATOIRES SERVIER, priority 2022, published 2025).
# What was measured:
# BCL2 D103Y = BCL2 D103Y (Homo sapiens, UniProt P10415, D103Y); experiment: TR-FRET competitive binding assay, BCL2 D103Y; conditions: Ki determined from IC50, read-out: TR_FRET EKI_Bcl2 D103Y
# Procedure, shortened: (§1)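 Terbium-labelled N-terminal Halo-fusion BCL2 or BCLXL (E. coli), 0.5 nM, competed against fluorescein-labelled PUMA peptide (2 or 20 nM) for 2 h at 23° C in 50 mM Hepes pH 7.5, 150 mM NaCl, 5% DMSO. TR-FRET 520/495 nm ratio gave IC50 by four-parameter fit; Ki derived from IC50.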
# KMS12PE Bcl2 D103V = experiment: In vitro cytotoxicity CellTiterGlo 72 h, KMS12PE Bcl2 D103V; type: cell-based; conditions: Homo sapiens, KMS-12-PE, read-out: C50 nM, KMS12PE Bcl2 D103V
# Description: (§2) KMS-12-PE (ACC 606) were purchased from the Leibniz-Institute DSMZ (Braunschweig, Germany) and were grown at 37° C. in a humidified atmosphere with 5% CO2 in media recommended by the suppliers. Lentiviral particles containing Bcl-2 wild type (also named “Bcl2 WT”), Bcl-2 mutated on G101V (also named “Bcl2 G101V”), Bcl-2 mutated on D103Y (also named “Bcl2 D103Y”), Bcl-2 mutated on D103V (also named “Bcl2 D103V”), Bcl-2 mutated on D103E (also named “Bcl2 D103E”), Bcl-2 mutated on F104I (also named “Bcl2 F104I”), Bcl-2 mutated on F104L (also named “Bcl2 F104L”), Bcl-2 mutated on D111A (also named “Bcl2 D111A”), Bcl-2 mutated on A113G (also named “Bcl2 A113G”), Bcl-2 mutated on R129L (also named “Bcl2 R129L”), Bcl-2 mutated on V156D (also named “Bcl2 V156D”) were cloned into pcLV-CMV-DEST-IRES-TagRFP. Lentiviral particles (1×10^6) were mixed with Polybrene at 8 μg/ml and transduced by spinoculation for 1 h at 32° C. and incubated overnight. After 8 days, TagRFP positive-cells were sorted by FACS. BCL2 expression was monitored by immunoblotting using anti-Flag and anti-BCL2 antibodies. Cells were seeded into 96-wells plates and treated with 1:3.16 serial dilution of compounds (9 different concentrations). Cell viability was assessed using CellTiterGlo reagent following treatment for 72 h. Results were normalized to the viability of cells without compounds (control wells). The C50 values were calculated using nonlinear regression algorithms in XCell software.
# BCL2 WT = BCL2 WT (Homo sapiens (Human), UniProt P10415); experiment: TR-FRET competitive binding assay, BCL2 WT; conditions: Ki determined from IC50, read-out: TR_FRET EKI_Bcl2 WT
# Procedure, shortened: as §1
# KMS12PE Bcl2 D111A = experiment: In vitro cytotoxicity CellTiterGlo 72 h, KMS12PE Bcl2 D111A; type: cell-based; conditions: Homo sapiens, KMS-12-PE, read-out: C50 nM, KMS12PE Bcl2 D111A
# Description: as §2
# KMS12PE = experiment: In vitro cytotoxicity CellTiterGlo 72 h, KMS12PE; type: cell-based; conditions: Homo sapiens, KMS-12-PE, read-out: C50 nM, KMS12PE
# Description: as §2
# BCL2 G101V [1] = experiment: TR-FRET competitive binding assay, BCL2 G101V; design: species or system human; conditions: ratio Ki BCL2 G101V / Ki BCL2 WT
# Procedure, shortened: as §1
# BCL2 G101V [2] = biological target: BCL2 G101V (Homo sapiens, UniProt P10415, G101V); experiment: TR-FRET competitive binding assay, BCL2 G101V; conditions: BCL2 G101V; Ki determined from IC50; read-out: TR_FRET EKI_Bcl2 G101V
# Procedure, shortened: as §1
# KMS12PE Bcl2 R129L = experiment: In vitro cytotoxicity CellTiterGlo 72 h, KMS12PE Bcl2 R129L; type: cell-based; conditions: Homo sapiens, KMS-12-PE, read-out: C50 nM, KMS12PE Bcl2 R129L
# Description: as §2
# KMS12PE Bcl2 F104L = experiment: In vitro cytotoxicity CellTiterGlo 72 h, KMS12PE Bcl2 F104L; type: cell-based; conditions: Homo sapiens, KMS-12-PE, read-out: C50 nM, KMS12PE Bcl2 F104L
# Description: as §2
# BCL2 D111A = BCL2 D111A (Homo sapiens, UniProt P10415, D111A); experiment: TR-FRET competitive binding assay, BCL2 D111A; conditions: Ki determined from IC50, read-out: TR_FRET EKI_Bcl2 D111A
# Procedure, shortened: as §1
Structure (SMILES),Ki (BCL2 D103Y) [nM],Ki (BCL2 WT) [nM],TR_FRET EKI G101V/WT selectivty ratio (BCL2 G101V [1]),Ki (BCL2 G101V [2]) [nM],Ki (BCL2 D111A) [nM],IC50 (KMS12PE Bcl2 D103V) [nM],IC50 (KMS12PE Bcl2 D111A) [nM],IC50 (KMS12PE) [nM],IC50 (KMS12PE Bcl2 R129L) [nM],IC50 (KMS12PE Bcl2 F104L) [nM]
"Cc1c(N(C(=O)c2cc(-c3cc4c(cc3C(=O)N3Cc5ccccc5C[C@H]3C)CN(C(=O)Cc3ccc(OCCC5CCOCC5)cc3)CC4)n(C)c2C)c2ccc(O)cc2)cc(C#N)n1C [Example 27, N-(5-cyano-1,2-dimethyl-1H-pyrrol-3-yl)-N-(4-hydroxyphenyl)-1,2-dimethyl-5-{7-[(3R)-3-methyl-1,2,3,4-tetrahydroisoquinoline-2-carbonyl]-2-(2-{4-[2-(oxan-4-yl)ethoxy]phenyl}acetyl)-1,2,3,4-tetrahydroisoquinolin-6-yl}-1H-pyrrole-3-carboxamide]",0.73,0.8,1.5,1.2,1.67,1.55,0.86,0.19,0.99,5.51
"Cc1c(N(C(=O)c2cc(-c3cc4c(cc3C(=O)N3Cc5ccccc5C[C@H]3C)CN(C(=O)Cc3ccc(N5CCN6CCOC[C@@H]6C5)cc3F)CC4)n(C)c2C)c2ccc(O)cc2)cc(C#N)n1C [Example 45, 5-[2-(2-{4-[(9aS)-octahydropyrazino[2,1-c][1,4]oxazin-8-yl]-2-fluorophenyl}acetyl)-7-[(3R)-3-methyl-1,2,3,4-tetrahydroisoquinoline-2-carbonyl]-1,2,3,4-tetrahydroisoquinolin-6-yl]-N-(5-cyano-1,2-dimethyl-1H-pyrrol-3-yl)-N-(4-hydroxyphenyl)-1,2-dimethyl-1H-pyrrole-3-carboxamide]",0.15,0.08,4.8,0.4,0.19,2.7,2.05,0.32,1.89,22.5
"Cc1c(N(C(=O)c2cc(-c3cc4c(cc3C(=O)N3Cc5ccccc5C[C@H]3C)CN(C(=O)Cc3ccc(CCN5CCC(F)(F)CC5)cc3)CC4)n(C)c2C)c2ccc(O)cc2)cc(C#N)n1C [Example 51, N-(5-cyano-1,2-dimethylpyrrol-3-yl)-5-[2-(2-{4-[2-(4,4-difluoropiperidin-1-yl)ethyl]phenyl}acetyl)-7-{[(3R)-3-methyl-3,4-dihydro-1H-isoquinolin-2-yl]carbonyl}-3,4-dihydro-1H-isoquinolin-6-yl]-N-(4-hydroxyphenyl)-1,2-dimethylpyrrole-3-carboxamide]",0.92,0.22,4.5,1,0.89,4.63,3.21,0.34,3.22,58.9
"COC[C@@H]1Cc2ccccc2CN1C(=O)c1cc2c(cc1-c1cc(C(=O)N(c3ccc(O)cc3)c3cc(C#N)n(C)c3C)c(C)n1C)CCN(C(=O)Cc1ccc(OCCC3CCOCC3)cc1F)C2 [Example 52, N-(5-cyano-1,2-dimethylpyrrol-3-yl)-5-[2-(2-{2-fluoro-4-[2-(oxan-4-yl)ethoxy]phenyl}acetyl)-7-{[(3S)-3-(methoxymethyl)-3,4-dihydro-1H-isoquinolin-2-yl]carbonyl}-3,4-dihydro-1H-isoquinolin-6-yl]-N-(4-hydroxyphenyl)-1,2-dimethylpyrrole-3-carboxamide]",0.23,0.2,2.3,0.5,0.64,2.78,1.21,0.21,1.89,11.1
"Cc1c(N(C(=O)c2cc(-c3cc4c(cc3C(=O)N3Cc5ccccc5C[C@H]3C)CN(C(=O)Cc3ccc(OCCN5CCSCC5)cc3)CC4)n(C)c2C)c2ccc(O)cc2)cc(C#N)n1C [Example 55, N-(5-cyano-1,2-dimethyl-1H-pyrrol-3-yl)-N-(4-hydroxyphenyl)-1,2-dimethyl-5-{7-[(3R)-3-methyl-1,2,3,4-tetrahydroisoquinoline-2-carbonyl]-2-(2-{4-[2-(thiomorpholin-4-yl)ethoxy]phenyl}acetyl)-1,2,3,4-tetrahydroisoquinolin-6-yl}-1H-pyrrole-3-carboxamide]",0.16,0.1,2.4,0.2,0.25,4.48,2.2,0.33,2.46,19.7

# The remaining molecules from weak to strong by Ki (BCL2 D103Y), led by results:
Ki (BCL2 D103Y) [nM],Ki (BCL2 WT) [nM],TR_FRET EKI G101V/WT selectivty ratio (BCL2 G101V [1]),Ki (BCL2 G101V [2]) [nM],Ki (BCL2 D111A) [nM],Structure (SMILES),IC50 (KMS12PE Bcl2 D103V) [nM],IC50 (KMS12PE Bcl2 D111A) [nM],IC50 (KMS12PE) [nM],IC50 (KMS12PE Bcl2 R129L) [nM],IC50 (KMS12PE Bcl2 F104L) [nM]
0.35,0.11,3.1,0.3,0.19,"Cc1c(N(C(=O)c2cc(-c3cc4c(cc3C(=O)N3Cc5ccccc5C[C@H]3C)CN(C(=O)Cc3ccc(OCCN5CCOCC5)cc3)CC4)n(C)c2C)c2ccc(O)cc2)cc(C#N)n1C [Example 21, N-(5-cyano-1,2-dimethyl-1H-pyrrol-3-yl)-N-(4-hydroxyphenyl)-1,2-dimethyl-5-{7-[(3R)-3-methyl-1,2,3,4-tetrahydroisoquinoline-2-carbonyl]-2-(2-{4-[2-(morpholin-4-yl)ethoxy]phenyl}acetyl)-1,2,3,4-tetrahydroisoquinolin-6-yl}-1H-pyrrole-3-carboxamide]",3.34,1.27,0.24,1.51,15.8
0.18,0.07,2.8,0.2,0.18,"Cc1c(N(C(=O)c2cc(-c3cc4c(cc3C(=O)N3Cc5ccccc5C[C@H]3C)CN(C(=O)Cc3ccc(OCCN5CCC(F)CC5)cc3)CC4)n(C)c2C)c2ccc(O)cc2)cc(C#N)n1C [Example 53, N-(5-cyano-1,2-dimethyl-1H-pyrrol-3-yl)-5-[2-(2-{4-[2-(4-fluoropiperidin-1-yl)ethoxy]phenyl}acetyl)-7-[(3R)-3-methyl-1,2,3,4-tetrahydroisoquinoline-2-carbonyl]-1,2,3,4-tetrahydroisoquinolin-6-yl]-N-(4-hydroxyphenyl)-1,2-dimethyl-1H-pyrrole-3-carboxamide]",5.38,2.19,0.35,2.38,25.5
0.14,0.04,5.0,0.2,0.1,"Cc1c(N(C(=O)c2cc(-c3cc4c(cc3C(=O)N3Cc5ccccc5C[C@H]3CN3CCCCC3)CN(C(=O)Cc3ccc(OCCN5CCOCC5)cc3F)CC4)n(C)c2C)c2ccc(O)cc2)cc(C#N)n1C [Example 43, N-(5-cyano-1,2-dimethylpyrrol-3-yl)-5-[2-(2-{2-fluoro-4-[2-(morpholin-4-yl)ethoxy]phenyl}acetyl)-7-{[(3S)-3-(piperidin-1-ylmethyl)-3,4-dihydro-1H-isoquinolin-2-yl]carbonyl}-3,4-dihydro-1H-isoquinolin-6-yl]-N-(4-hydroxyphenyl)-1,2-dimethylpyrrole-3-carboxamide]",2,1.13,0.22,0.99,8.49
